In brackets after ≈: the same amount, converted by molar mass. Bounds are passed on as bounds.

Assay type in all cases: functional
Assay [1] concerns Mycobacterium tuberculosis. As to the kind of experiment: Antitubercular activity against multidrug resistant Mycobacterium tuberculosis isolate 2.
The subject of assay [2] is Mycobacterium tuberculosis. As to the kind of experiment: Antitubercular activity against multidrug resistant Mycobacterium tuberculosis isolate 1.
Assay [3] has as its system Mycobacterium tuberculosis. As to the kind of experiment: Potency index, ratio of isoniazid MIC to compound MIC for multidrug resistant Mycobacterium tuberculosis isolate 1.
The subject of assay [4] is Mycobacterium tuberculosis. The assay can be described thus: Potency index, ratio of rifampin MIC to compound MIC for multidrug resistant Mycobacterium tuberculosis isolate 1.
Assay [5] deals with Mycobacterium tuberculosis. The assay can be described thus: Potency index, ratio of isoniazid MIC to compound MIC for multidrug resistant Mycobacterium tuberculosis isolate 2.
In assay [6] the test system is Mycobacterium tuberculosis. As to the kind of experiment: Potency index, ratio of rifampin MIC to compound MIC for multidrug resistant Mycobacterium tuberculosis isolate 2.
Assay [7] has as its system Mycobacterium tuberculosis. As to the kind of experiment: Potency index, ratio of ciprofloxacin MIC to compound MIC for multidrug resistant Mycobacterium tuberculosis isolate 2.
In assay [8] the test system is Mycobacterium tuberculosis. The assay can be described thus: Potency index, ratio of ciprofloxacin MIC to compound MIC for multidrug resistant Mycobacterium tuberculosis isolate 1.

A word on the MIC: it is the least concentration at which growth counts as inhibited. Turning to `CCOC(=O)c1c(-c2ccc(OC)cc2)oc2ccc(OCCCN3C(=O)/C(=N\OC)c4cc(OC)ccc43)cc12`, the MIC in assay [1] turned out to be 0.29 µg/mL (≈ 0.519 µM); in assay [2], 0.49 µg/mL (≈ 0.877 µM).

As to `CCOC(=O)c1c(-c2ccc(OC)cc2)oc2ccc(OCCCCCCN3C(=O)/C(=N\NC(N)=S)c4cc(F)ccc43)cc12`, the MIC in assay [1] amounted to 0.9 µg/mL (≈ 1.42 µM); in assay [2], 0.95 µg/mL (≈ 1.5 µM).

In the case of `O=C(O)c1cn(C2CC2)c2cc(N3CCNCC3)c(F)cc2c1=O` [CIPROFLOXACIN], the results for the MIC in assay [1] and in assay [2] were 0.27 µg/mL (≈ 0.815 µM) and 0.39 µg/mL (≈ 1.18 µM), respectively.

Turning to `CCOC(=O)c1c(-c2ccc(OC)cc2)oc2ccc(OCCCCCCN3C(=O)C(=O)c4cc(F)ccc43)cc12`, the minimum inhibitory concentration (MIC) came to 12.9 µg/mL (≈ 23.1 µM) in assay [1] and 14.2 µg/mL (≈ 25.3 µM) in assay [2].

With `CCOC(=O)c1c(-c2ccc(OC)cc2)oc2ccc(OCCCCCN3C(=O)/C(=N\OC)c4cc(F)ccc43)cc12`, the values for the MIC in assay [1] and in assay [2] were 4.24 µg/mL (≈ 7.38 µM) and 3.46 µg/mL (≈ 6.02 µM), respectively.

As for `CCO/N=C1\C(=O)N(CCCOc2ccc3oc(-c4ccc(OC)cc4)c(C(=O)OCC)c3c2)c2ccc(OC)cc21`, the MIC was 2.12 µg/mL (≈ 3.7 µM) in assay [1] and 2.24 µg/mL (≈ 3.91 µM) in assay [2].

Regarding `CCOC(=O)c1c(-c2ccc(OC)cc2)oc2ccc(OCCCCCCN3C(=O)/C(=N\OC)c4ccccc43)cc12`, the minimum inhibitory concentration (MIC) in assay [1] stood at 1.87 µg/mL (≈ 3.28 µM); in assay [2] it was 1.73 µg/mL (≈ 3.03 µM).

`CCO/N=C1\C(=O)N(CCCCOc2ccc3oc(-c4ccc(OC)cc4)c(C(=O)OCC)c3c2)c2ccccc21`: the MIC in assay [1] was 3.42 µg/mL (≈ 6.14 µM); in assay [2] it was 3.23 µg/mL (≈ 5.8 µM).

Regarding `CO[C@H]1/C=C/O[C@@]2(C)Oc3c(C)c(O)c4c(O)c(c(/C=N/N5CCN(C)CC5)c(O)c4c3C2=O)NC(=O)/C(C)=C\C=C\[C@H](C)[C@H](O)[C@@H](C)[C@@H](O)[C@@H](C)[C@H](OC(C)=O)[C@@H]1C` [RIFAMPIN], the MIC in assay [1] and in assay [2] was above 40 µg/mL each time.

Take `CCOC(=O)c1c(-c2ccc(OC)cc2)oc2ccc(OCCCCN3C(=O)/C(=N\OC)c4ccccc43)cc12`: the Ratio entry in assay [3], in assay [4], in assay [5], in assay [6], in assay [7] and in assay [8] was “>=48” in each case. Besides, the MIC in assay [1] stood at 0.16 µg/mL (≈ 0.295 µM); in assay [2] it was 0.062 µg/mL (≈ 0.114 µM).

Take `CCOC(=O)c1c(-c2ccc(OC)cc2)oc2ccc(OCCCN3C(=O)/C(=N\OC)c4ccccc43)cc12`: the minimum inhibitory concentration (MIC) in assay [1] was found to be 0.21 µg/mL (≈ 0.397 µM); in assay [2], 0.16 µg/mL (≈ 0.303 µM).

With `CCOC(=O)c1c(-c2ccc(OC)cc2)oc2ccc(OCCCCCCN3C(=O)/C(=N\NC(N)=S)c4ccccc43)cc12`, the minimum inhibitory concentration (MIC) in assay [1] was determined as 0.48 µg/mL (≈ 0.781 µM); in assay [2], 0.47 µg/mL (≈ 0.765 µM).

Regarding `CCO/N=C1\C(=O)N(CCCCCCOc2ccc3oc(-c4ccc(OC)cc4)c(C(=O)OCC)c3c2)c2ccccc21`, the minimum inhibitory concentration (MIC) in assay [1] was found to be 3.86 µg/mL (≈ 6.6 µM); in assay [2] it was 2.69 µg/mL (≈ 4.6 µM).

On to `NNC(=O)c1ccncc1` [ISONIAZID], for which the minimum inhibitory concentration (MIC) in assay [1] and in assay [2] was above 40 µg/mL throughout.

On to `CCO/N=C1\C(=O)N(CCCOc2ccc3oc(-c4ccc(OC)cc4)c(C(=O)OCC)c3c2)c2ccccc21`, for which the values for the MIC in assay [1] and in assay [2] were 5.88 µg/mL (≈ 10.8 µM) and 4.25 µg/mL (≈ 7.83 µM), respectively.

Consider `CCOC(=O)c1c(-c2ccccc2)oc2ccc(OCCCN3C(=O)/C(=N\OC)c4cc(OC)ccc43)cc12`, for which the MIC in assay [1] is 0.27 µg/mL (≈ 0.511 µM); in assay [2], 0.21 µg/mL (≈ 0.397 µM).

For the compound `CCOC(=O)c1c(-c2ccc(OC)cc2)oc2ccc(OCCCCCCN3C(=O)/C(=N\OC)c4cc(F)ccc43)cc12`, the minimal inhibitory concentration (MIC) in assay [1] stood at 3.56 µg/mL (≈ 6.05 µM); in assay [2], 2.85 µg/mL (≈ 4.84 µM).

Take `CCOC(=O)c1c(-c2ccc(F)cc2)oc2ccc(OCCCCCCN3C(=O)C(=O)c4cc(F)ccc43)cc12`: the minimal inhibitory concentration (MIC) in assay [1] amounted to 2.98 µg/mL (≈ 5.44 µM); in assay [2], 5.89 µg/mL (≈ 10.8 µM).

As to `CNC(=O)c1c(-c2ccc(O)cc2)oc2ccc(O)c(CN3CCCCC3)c12`, the MIC in assay [1] and in assay [2] was below 0.016 µg/mL throughout.

`CCOC(=O)c1c(-c2ccccc2)oc2ccc(OCCCN3C(=O)/C(=N\OC)c4ccccc43)cc12`: the MIC stood at 0.91 µg/mL (≈ 1.83 µM) in assay [1] and 0.94 µg/mL (≈ 1.89 µM) in assay [2].
